Like-named read-outs stand apart in the source and are kept apart here.
Legend:
[1] = system: L1210; assay: in vitro cell growth inhibition, L1210; type: cell-based
Excerpt: (§1) Compounds of the invention show antitumor activity. The antitumor activity of the representative cyclopentanthraquinone derivatives is compared with Mitomycin C, m-AMSA and adriamycin.

[2] = system: human leukemic HL-60; assay: in vitro cell growth inhibition, HL-60; type: cell-based; settings: for IC50 / antitumor activity against human leukemic HL-60 cell growth (in words): HL-60, in vitro
Excerpt: as §1

[3] = system: L1210 cells; assay: effect against L1210 in mice (mice inoculated i.p. with L1210 cells); type: in vivo; design: AST / survival time: unit not given here; settings: for % ILS (increase in lifespan): 25% or greater considered significant; for survival time: individual mice
Excerpt: *Increase in lifespan of 25% or greater is considered to be significant.
Mice dying of toxicity (t) not included in AST evaluation.

[4] = system: DNA; settings: literature; cited from earlier work
[5] = system: certain tumor cell growth; settings: literature; without alkylating side chain; cited from earlier work
[6] = system: MT4; assay: in vitro cell growth inhibition, MT4; type: cell-based, human; settings: for IC50 / antitumor activity against MT4 cell growth (in words): MT4, in vitro
Excerpt: as §1

[7] = literature; cited from earlier work
[8] = Mus musculus, L1210, in vitro, read-out: IC50 for Cell Growth Inhibition, L1210
[9] = L1210, in vitro, read-out: IC50 for Cell Growth Inhibition, L1210

Row | Structure (SMILES) | IC50 [1, 8] [nM] | AST ([3]; 2.5 mg/kg QD x5, i.p.) | N/T ([3]; 2.5 mg/kg QD x5, i.p.) | % ILS (increase in lifespan) ([3]; 2.5 mg/kg QD x5, i.p.) [%] | day 4 AWC ([3]; 2.5 mg/kg QD x5, i.p.) | N/T ([3]; 5.0 mg/kg QD x5, i.p.) | day 4 AWC ([3]; 5.0 mg/kg QD x5, i.p.) [g] | AST ([3]; 20 mg/kg x1, i.p.) | N/T ([3]; 20 mg/kg x1, i.p.) | % ILS (increase in lifespan) ([3]; 20 mg/kg x1, i.p.) [%] | survival time ([3]; 20 mg/kg x1, i.p.) | antitumor activity against L1210 cell growth (in words) ([1]; L1210, in vitro) | other results
1 | COc1cccc2c1C(=O)c1c(O)c3c(c(O)c1C2=O)C[C@@](O)(C(=O)CO)C[C@@H]3O[C@H]1C[C@H](N)[C@H](O)[C@H](C)O1 [Adriamycin, reference compound] | 20 |  |  |  |  |  |  |  |  |  |  |  | IC50 ([2]; Homo sapiens): 30 nM
2 | CO[C@@]12[C@H](COC(N)=O)C3=C(C(=O)C(C)=C(N)C3=O)N1C[C@@H]1N[C@@H]12 [Mit-C, reference compound] | 5 | 12.7 | 0/3 | 92 | +1.0 g | 0/3 | -2.0 | 11.0 | 0/1 | 67 | 11 |  | day 7 AWC ([3]; 2.5 mg/kg QD x5, i.p.): -0.3 g; interaction with DNA (in words) [4]: bind covalently at the minor groove of DNA double strand forming interstrand cross-links
3 | Cc1cc(O)c2c(c1)C(=O)c1cccc(O)c1C2=O [chrysophanol] |  |  |  |  |  |  |  |  |  |  |  |  | activity of the parent natural product (in words) [5]: inactive
4 | O=C1c2ccccc2C(=O)c2c1ccc1c2CC2NC12 (stereo not drawn) [compound IIa, 2,3-aziridino-2,3-dihydro-1H-cyclopent[a]anthracene-6,11-dione] |  |  |  |  |  |  |  |  |  |  |  | less activity | IC50 ([1]; Mus musculus, L1210, read-out: IC50 for Cell Growth Inhibition, L1210): 9090 nM
5 | O=C1c2ccccc2C(=O)c2c1cc(OCCN(CCCl)CCCl)c1c2CCC1 [compound IIb, 4-[2-bis(2-chloroethyl)amino]ethoxy-2,3-dihydro-1H-cyclopent[a]anthracene-6,11-dione] |  | 9.0 | 0/3 | 36 | +0.3 g | 0/3 | -0.3 | 9.0 | 0/1 | 36 | 9 | significant antitumor activity | IC50 [6]: 110 nM; antitumor activity against MT4 cell growth (in words) [6]: significant antitumor activity; IC50 [1, 9]: 290 nM; IC50 [2]: 180 nM; antitumor activity against human leukemic HL-60 cell growth (in words) [2]: significant antitumor activity; day 7 AWC ([3]; 2.5 mg/kg QD x5, i.p.): +1.0 g; AST ([3]; 5.0 mg/kg QD x5, i.p.): 9.0; % ILS (increase in lifespan) ([3]; 5.0 mg/kg QD x5, i.p.): 36%; day 7 AWC ([3]; 5.0 mg/kg QD x5, i.p.): +0.7 g; day 4 AWC ([3]; 20 mg/kg x1, i.p.): -2.5 g; day 7 AWC ([3]; 20 mg/kg x1, i.p.): +0.5 g
6 | O=C1c2ccccc2C(=O)c2c1cc(OCCN(CCCl)CCCl)c1c2CC2NC12 (stereo not drawn) [compound IIc, 2,3-aziridino-4-[2-bis(2-chloroethyl)amino]-ethoxy-2,3-dihydro-1H-cyclopent [a]anthracene-6,11-dione] |  | 9.0 | 0/3 | 36 | +0.3 g | 0/3 | -0.3 | 9.0 | 0/1 | 36 | 9 | much greater antitumor activity than that of IIa and IIb | IC50 [6]: 69 nM; antitumor activity against MT4 cell growth (in words) [6]: significant antitumor activity; activity relative to m-AMSA against MT4 cell growth ([6]; compared with m-AMSA, MT4): half as active as m-AMSA; IC50 [1, 9]: 64 nM; IC50 [2]: 75 nM; antitumor activity against human leukemic HL-60 cell growth (in words) [2]: significant antitumor activity; potency relative to m-AMSA against HL-60 cell growth ([2]; compared with m-AMSA, HL-60): as potent as m-AMSA; AST ([3]; 5.0 mg/kg QD x5, i.p.): 9.0; % ILS (increase in lifespan) ([3]; 5.0 mg/kg QD x5, i.p.): 36%; day 7 AWC ([3]; 5.0 mg/kg QD x5, i.p.): +1.7 g; day 4 AWC ([3]; 20 mg/kg x1, i.p.): -2.5 g; day 7 AWC ([3]; 20 mg/kg x1, i.p.): +1.5 g
7 | Cc1cc(O)c2c(c1)C(=O)c1cc(O)cc(O)c1C2=O [emodin] |  |  |  |  |  |  |  |  |  |  |  |  | activity of the parent natural product (in words) [5]: inactive
8 | CCN(CC)CCNc1ccc(C)c2sc3ccccc3c(=O)c12 [lucanthone] |  |  |  |  |  |  |  |  |  |  |  |  | antischistosomal and antitumor activity (in words) [7]: potent antischistosomal and antitumor activity; interaction with DNA (in words) [4]: capable of intercalating into DNA and monoalkylating the DNA
9 | COc1cc(NS(C)(=O)=O)ccc1Nc1c2ccccc2nc2ccccc12 [m-AMSA, reference compound] | 4 |  |  |  |  |  |  |  |  |  |  |  | IC50 ([6]; Homo sapiens): 34 nM; IC50 ([2]; Homo sapiens): 80 nM

From US5476952A, “Antitumor cyclopentnaphthoquinone and cyclopentanthraquinone derivatives” (Sloan-Kettering Institute for Cancer Research, priority 1993, dated 1995)
